Type in all cases: functional
Assay [1] concerns Mycobacterium tuberculosis. Nature of the assay: Antimicrobial activity against 2-oxo-1-(2-(4-((3-oxo-3,4-dihydro-2H-pyrido[3,2-b][1,4]oxazin-6-yl)methylamino)piperidin-1-yl)ethyl)-1,2-dihydroquinoline-7-carbonitrile resistant Mycobacterium tuberculosis H37Rv ATCC 27294 containing DNA gyrase A74V mutant.
Assay [2] has as its system Mycobacterium tuberculosis. The assay can be described thus: Antimicrobial activity against 5-(((3S,4R)-3-fluoro-1-(2-(7-methoxy-2-oxo-1,5-naphthyridin-1(2H)-yl)ethyl)piperidin-4-ylamino)methyl)-2-methylnicotinonitrile resistant Mycobacterium tuberculosis H37Rv ATCC 27294 containing DNA gyrase D89N mutant.
For assay [3], the system named is Mycobacterium tuberculosis. The assay can be described thus: Antimicrobial activity against moxicillin resistant Mycobacterium tuberculosis H37Rv ATCC 27294 containing DNA gyrase G88N mutant.

≈ marks a conversion by molar mass, not a printed value. Where only a bound is given, the exact number is not on record here.

As a reminder, the MIC is the lowest concentration that inhibits growth of the organism. A low value points to inhibition by little substance. With `NS(=O)(=O)c1ccc(Oc2cnc3ccc(=O)n(CCN4CCC(c5nc6cc(C(F)(F)F)ccc6[nH]5)CC4)c3c2)cc1`, the MIC was 25 µM (≈ 15.3 µg/mL) in assay [1], 12.5 µM (≈ 7.66 µg/mL) in assay [2] and 0.39 µM (≈ 0.239 µg/mL) in assay [3].

As to `NNC(=O)c1ccncc1` [ISONIAZID], the MIC in assay [1] came out at 0.06 µM (≈ 0.00823 µg/mL); in assay [2], 0.03 µM (≈ 0.00411 µg/mL); in assay [3], 0.06 µM (≈ 0.00823 µg/mL).

On to `O=c1ccc2ncc(F)cc2n1CCN1CCC(NCc2ccc(C(F)(F)F)nc2)CC1`, for which the MIC in assay [1] is 2 µM (≈ 0.899 µg/mL); in assay [2], over 100 µM; in assay [3], under 0.19 µM.

Turning to `COc1cnc2ccc(=O)n(CCN3CCC(c4nc5cc(Cl)c(F)cc5[nH]4)CC3)c2c1`, the minimal inhibitory concentration (MIC) was 100 µM (≈ 45.6 µg/mL) in assay [1], 25 µM (≈ 11.4 µg/mL) in assay [2] and 0.06 µM (≈ 0.0274 µg/mL) in assay [3].

As to `COc1cnc2ccc(=O)n(CCN3CCC(c4nc5cc(C(F)(F)F)ccc5[nH]4)CC3)c2c1`, the MIC in assay [1] stood at 50 µM (≈ 23.6 µg/mL); in assay [2], 25 µM (≈ 11.8 µg/mL); in assay [3], 0.78 µM (≈ 0.368 µg/mL).

`COc1cnc2ccc(=O)n(CCN3CCN(c4nc5cc(C#N)c(C)cc5[nH]4)CC3)c2c1`: the figures for the MIC in assay [1], in assay [2] and in assay [3] were over 100 µM, 100 µM (≈ 44.4 µg/mL) and 1.56 µM (≈ 0.692 µg/mL), respectively.

For `CO[C@H]1/C=C/O[C@@]2(C)Oc3c(C)c(O)c4c(O)c(c(/C=N/N5CCN(C)CC5)c(O)c4c3C2=O)NC(=O)/C(C)=C\C=C\[C@H](C)[C@H](O)[C@@H](C)[C@@H](O)[C@@H](C)[C@H](OC(C)=O)[C@@H]1C` [RIFAMPIN], the MIC in assay [1] and in assay [3] was 0.008 µM (≈ 0.00658 µg/mL) throughout.

Take `COc1cnc2ccc(=O)n(CCN3CCC(c4nc5cc(C#N)c(C)cc5[nH]4)CC3)c2c1`: the MIC was over 100 µM in assay [1], 100 µM (≈ 44.3 µg/mL) in assay [2] and 0.78 µM (≈ 0.345 µg/mL) in assay [3].

Consider `COc1c(N2C[C@@H]3CCCN[C@@H]3C2)c(F)cc2c(=O)c(C(=O)O)cn(C3CC3)c12` [MOXIFLOXACIN], for which the MIC came to 0.25 µM (≈ 0.1 µg/mL) in assay [1], 2 µM (≈ 0.803 µg/mL) in assay [2] and 4 µM (≈ 1.61 µg/mL) in assay [3].

Turning to `O=C(O)c1cn(C2CC2)c2cc(N3CCNCC3)c(F)cc2c1=O` [CIPROFLOXACIN], the MIC in assay [1] came out at 0.5 µM (≈ 0.166 µg/mL); in assay [2], 16 µM (≈ 5.3 µg/mL); in assay [3], 8 µM (≈ 2.65 µg/mL).

As for `N#Cc1ccc2ccc(=O)n(CCN3CCC(NCc4ccc5c(n4)NC(=O)CO5)CC3)c2c1`, the figures for the MIC in assay [1], in assay [2] and in assay [3] were 4 µM (≈ 1.83 µg/mL), over 100 µM and under 0.19 µM, respectively.

These data come from ChEMBL document CHEMBL3352071, “Benzimidazoles: novel mycobacterial gyrase inhibitors from scaffold morphing” (ACS Med Chem Lett, 2014).
